Laboratory results published in US20250313548A1 (Actio Biosciences, Inc., priority 2023, published 2025).

Each compound was assayed against human, KCNT1 (Homo sapiens (Human), UniProt Q5JUK3) (assay: FLIPR Tl/K Flux Assay). Settings: HEK293 cells stably expressing human KCNT1; Tl+ flux stimulated with EC80 of agonist Loxapine.
Assay type: cell-based
How it was run: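 Inhibition values come from a Hill-equation fit of % inhibition versus log concentration, using normalized fluorescence (Fmax/Fmin) over a 160 s read. The read followed stimulation with Tl+ plus EC80 agonist loxapine after 30 min compound pre-incubation at 25 °C. Cells were KCNT1-expressing HEK293, dye-loaded 1 h in pH 7.4 HEPES/HBSS with 5 mM probenecid.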

Chain of human, KCNT1 (Q5JUK3 whole entry): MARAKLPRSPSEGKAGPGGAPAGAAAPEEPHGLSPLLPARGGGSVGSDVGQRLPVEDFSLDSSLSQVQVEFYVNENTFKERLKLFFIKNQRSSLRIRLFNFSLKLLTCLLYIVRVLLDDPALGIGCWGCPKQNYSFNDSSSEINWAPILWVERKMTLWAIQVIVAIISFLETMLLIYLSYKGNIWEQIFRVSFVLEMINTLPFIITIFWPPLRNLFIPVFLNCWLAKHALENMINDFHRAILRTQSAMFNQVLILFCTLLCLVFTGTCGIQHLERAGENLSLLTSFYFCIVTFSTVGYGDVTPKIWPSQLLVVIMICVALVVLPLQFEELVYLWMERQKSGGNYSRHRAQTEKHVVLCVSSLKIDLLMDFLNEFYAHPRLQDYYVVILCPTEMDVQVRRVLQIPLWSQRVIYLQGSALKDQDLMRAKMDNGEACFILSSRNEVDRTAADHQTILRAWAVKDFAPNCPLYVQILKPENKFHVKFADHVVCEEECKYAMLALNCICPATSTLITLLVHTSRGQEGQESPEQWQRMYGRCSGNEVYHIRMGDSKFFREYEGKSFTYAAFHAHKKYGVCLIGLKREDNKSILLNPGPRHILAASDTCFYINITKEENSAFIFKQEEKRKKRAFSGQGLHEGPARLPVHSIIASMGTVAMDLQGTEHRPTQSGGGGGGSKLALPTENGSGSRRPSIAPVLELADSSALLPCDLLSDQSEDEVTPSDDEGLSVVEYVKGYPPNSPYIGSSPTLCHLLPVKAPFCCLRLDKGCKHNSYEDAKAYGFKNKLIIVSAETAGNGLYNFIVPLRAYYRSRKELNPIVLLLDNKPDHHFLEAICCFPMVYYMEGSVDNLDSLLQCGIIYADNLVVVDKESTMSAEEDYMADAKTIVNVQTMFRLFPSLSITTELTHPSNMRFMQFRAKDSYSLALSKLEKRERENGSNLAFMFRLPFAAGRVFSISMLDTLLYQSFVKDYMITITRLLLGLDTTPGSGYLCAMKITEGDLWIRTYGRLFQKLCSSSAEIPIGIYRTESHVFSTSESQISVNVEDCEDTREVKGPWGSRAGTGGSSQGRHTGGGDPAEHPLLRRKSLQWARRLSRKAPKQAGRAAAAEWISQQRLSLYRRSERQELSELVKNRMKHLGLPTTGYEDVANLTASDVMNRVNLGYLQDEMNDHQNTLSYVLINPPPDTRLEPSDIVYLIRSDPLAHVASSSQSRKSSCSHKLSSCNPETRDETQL

IC50, < 0.25 µM:
CC(F)(F)c1cc(-c2nc3c(o2)CCC[C@@H]3NC(=O)c2cncc(C(F)(F)F)c2)ccn1 [Compound I-533a, (S)—N-(2-(2-(1,1-Difluoroethyl)pyridin-4-yl)-4,5,6,7-tetrahydrobenzo[d]oxazol-4-yl)-5-(trifluoromethyl)nicotinamide]
O=C(N[C@H]1CCn2nc(-c3cc(C(F)(F)F)ncc3F)cc21)c1ccnc(OC(F)(F)F)c1 [Compound I-536a, (S)-N-(2-(5-Fluoro-2-(trifluoromethyl)pyridin-4-yl)-5,6-dihydro-4H-pyrrolo[1,2-b]pyrazol-4-yl)-2-(trifluoromethoxy)isonicotinamide]
Cn1nc(C(F)(F)F)cc1C(=O)N[C@H]1CCn2nc(-c3ccnc(C(C)(F)F)c3)cc21 [Compound I-537a, (S)-N-(2-(2-(1,1-Difluoroethyl)pyridin-4-yl)-5,6-dihydro-4H-pyrrolo[1,2-b]pyrazol-4-yl)-1-methyl-3-(trifluoromethyl)-1H-pyrazole-5-carboxamide]
CC(F)(F)c1cc(-c2cc3n(n2)CC[C@@H]3NC(=O)c2cnn(C(F)(F)F)c2)ccn1 [Compound I-538a, (S)-N-(2-(2-(1,1-Difluoroethyl)pyridin-4-yl)-5,6-dihydro-4H-pyrrolo[1,2-b]pyrazol-4-yl)-1-(trifluoromethyl)-1H-pyrazole-4-carboxamide]
O=C(N[C@H]1CCn2nc(-c3cc(C(F)(F)F)ncc3F)cc21)C12CC(CC(F)(F)F)(C1)C2 [Compound I-539a]
O=C(N[C@H]1CCn2nc(-c3cc(C(F)(F)F)ncc3F)cc21)C12CC(CF)(C1)C2 [Compound I-540a, (S)-N-(2-(5-Fluoro-2-(trifluoromethyl)pyridin-4-yl)-5,6-dihydro-4H-pyrrolo[1,2-b]pyrazol-4-yl)-3-(fluoromethyl)bicyclo[1.1.1]pentane-1-carboxamide]
CCOc1cc(C(=O)N[C@H]2CCn3nc(-c4ccnc(C5CC5)c4)cc32)ccn1 [Compound I-541a, (S)-N-(2-(2-Cyclopropylpyridin-4-yl)-5,6-dihydro-4H-pyrrolo[1,2-b]pyrazol-4-yl)-2-ethoxyisonicotinamide]
CC(C)Oc1cc(C(=O)N[C@H]2CCn3nc(-c4ccnc(C5CC5)c4)cc32)ccn1 [Compound I-542a, (S)-N-(2-(2-Cyclopropylpyridin-4-yl)-5,6-dihydro-4H-pyrrolo[1,2-b]pyrazol-4-yl)-2-isopropoxyisonicotinamide]
O=C(N[C@H]1CCn2nc(-c3ccnc(C4CC4)c3)cc21)c1ccnc(OC(F)(F)F)c1 [Compound I-543a, (S)-N-(2-(2-Cyclopropylpyridin-4-yl)-5,6-dihydro-4H-pyrrolo[1,2-b]pyrazol-4-yl)-2-(trifluoromethoxy)isonicotinamide]
CC(F)(F)c1cc(-c2nc3c(o2)CCC[C@@H]3NC(=O)c2cncc(F)c2)ccn1 [Compound I-544a, (S)—N-(2-(2-(1,1-difluoroethyl)pyridin-4-yl)-4,5,6,7-tetrahydrobenzo[d]oxazol-4-yl)-5-fluoronicotinamide]
CC(F)(F)c1cc(-c2nc3c(o2)CCC[C@@H]3NC(=O)c2cn(C(F)(F)F)nc2C(F)(F)F)ccn1 [Compound I-545a, (S)—N-(2-(2-(1,1-difluoroethyl)pyridin-4-yl)-4,5,6,7-tetrahydrobenzo[d]oxazol-4-yl)-1,3-bis(trifluoromethyl)-1H-pyrazole-4-carboxamide]
CC(C)Oc1cc(C(=O)N[C@H]2CCn3nc(-c4cc(C(F)(F)F)ncc4F)cc32)ccn1 [Compound I-546a, (S)-N-(2-(5-Fluoro-2-(trifluoromethyl)pyridin-4-yl)-5,6-dihydro-4H-pyrrolo[1,2-b]pyrazol-4-yl)-2-isopropoxyisonicotinamide]
